Reference: patent publication US11236129B2, “IL-17A binding peptides and medical uses thereof” (Dompe' Farmaceutici S.P.A., priority 2018, dated 2022)
Read-outs that look alike come from different tables or passages of the source. Residues, ends and D or L forms follow the SMILES beside them.

Legend:
[1] = tested on: human corneal epithelial cells (hCEPIC); assay: Permeability test across stratified human corneal epithelial cells; type: in vitro ADME; settings: for Permeability (Papp): 50 μM, stratified human corneal epithelial cells
Description: (§1) The objective of this study was to evaluate the apparent permeability coefficient (Papp) value of the peptides across stratified human corneal epithelial cells. All peptides were tested at 50 μM in duplicate.
(§2) In particular, human corneal epithelial cells (hCEPIC) were stratified on Transwell cell culture inserts (Corning, N.Y., USA). The permeation experiments were performed taking samples from receiver chambers at 5, 30, 60 minutes time points and from donor chambers at the same time points. Each aliquot collected was analyzed by HPLC instrument (Knauer) equipped with C18 Vertex Plus Column (Knauer) thermostatically controlled at 40° C. The rate (apparent permeability coefficient, Papp) of the study compounds was calculated and compared to the Papp values of the low and high permeability markers, 6-carboxyfluorescein and Rhodamine B, respectively.
(§3) The apparent permeability coefficient (Papp) was calculated according to Equation: Papp=(I/A*C0)(dM/dt)
(§4) where dM/dt is the flux (nanomoles per second) across the cell layers;
(§5) A (square centimeters) is the exposed surface area of the insert membrane;
(§6) C0 is the initial drug concentration (micromolar) in the donor compartment at t=0 (Xiang et al., Drug Metab Dispos. 2009 May; 37(5):992-8.

[2] = molecular target: IL-17RA/IL17RC dimerization induced by IL-17A (Homo sapiens, UniProt Q16552); assay: IL-17RA/IL17RC dimerization assay in response to IL-17A (PathHunter Cytokine Receptor Assay); type: cell-based; settings: IL-17A at EC80; read-out: IC50 in IL-17RA/IL7RC dimerization assay
Outline: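 Receptor dimerization was read as chemiluminescence from complemented β-galactosidase after IL-17A at EC80 concentration for 6–16 h at 37 °C. Peptides were added 60 min before agonist, at 37 °C or room temperature, with 1% vehicle. Percent inhibition used the EC80-stimulated and vehicle wells as references.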

[3] = Isoelectric point, log D and log P (SiriusT3); type: physicochemical; settings: for IP (isoelectric point): 25±1° C., 0.15 M KCl
[4] = type: physicochemical; settings: pH 7.8
Outline: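 Peptides dissolved in phosphate buffer pH 7.8 as 10 mM stocks (more dilute for less soluble ones) and stored at 25 °C. Content measured by reversed-phase UHPLC (C18, 0.5% formic acid water/acetonitrile gradient, DAD 220-400 nm, ESI-MS ion trap) after 1:100 dilution to 100 μM, against 100 μM standards, at T0, 3 days and 1 week.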

[5] = Permeability test across stratified human corneal epithelial cells; type: in vitro ADME; settings: Permeability (Papp)
Description: as §1, §2, §3, §4, §5, §6

[6] = pH 7.4, pH 7.4, octanol/ISA water, read-out: Log D (7.4)
[7] = octanol/ISA water, read-out: logP

IL-17RA/IL17RC dimerization induced by IL-17A, sequence (Q16552 24-155): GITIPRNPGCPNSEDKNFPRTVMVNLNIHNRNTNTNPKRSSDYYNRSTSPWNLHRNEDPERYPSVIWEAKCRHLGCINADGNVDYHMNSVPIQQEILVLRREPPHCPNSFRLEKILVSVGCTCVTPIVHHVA

| Compound | IC50 [2] | IP (isoelectric point) [3] | logP ([3]; logP) | logD ([3]; pH 7.4, Log D (7.4)) | solubility [4] | Papp [5] | logD [3, 6] | logP [3, 7] | Permeability (Papp) [1] | permeability compared to high permeability standard Rhodamine B (in words) [1] |
| --- | --- | --- | --- | --- | --- | --- | --- | --- | --- | --- |
| O=C(O)c1ccc2c(c1)C1(OC2=O)c2ccc(O)cc2Oc2cc(O)ccc21 [6-carboxyfluorescein, reference compound] |  |  |  |  |  |  |  |  | 0.61±0.33 10^−6 cm/sec |  |
| CCN(CC)c1ccc2c(-c3ccccc3C(=O)O)c3ccc(=[N+](CC)CC)cc-3oc2c1.[Cl-] [Rhodamine B, reference compound] |  |  |  |  |  |  |  |  | 51.26±5.44 10^−6 cm/sec |  |
| CC[C@H](C)[C@H](NC(=O)[C@H](Cc1c[nH]c2ccccc12)NC(=O)[C@H](CCC(=O)O)NC(=O)[C@H](Cc1ccc(O)cc1)NC(=O)[C@H](CC(C)C)NC(=O)[C@H](CC(=O)O)NC(=O)[C@H](C)NC(=O)[C@@H]1CCCN1C(=O)[C@@H](NC(=O)[C@@H](NC(=O)[C@@H](NC(=O)[C@H](CCSC)NC(=O)[C@@H](NC(C)=O)C(C)C)C(C)C)[C@@H](C)O)[C@@H](C)CC)C(=O)N[C@@H](CCC(=O)O)C(=O)N[C@@H](CCC(=O)O)C(=O)N[C@H](C(=O)N1CCC[C@H]1C(=O)NCC(=O)N[C@@H](C)C(=O)NCC(=O)N[C@H](C(=O)N1CCC[C@H]1C(=O)NCC(=O)N[C@@H](C)C(=O)NCC(N)=O)C(C)C)C(C)C [SEQ ID NO: 37] (Ac-VMVTIPADLYEWIEEVPGAGVPGAG-NH2) | < 200 nM | 5.14 |  |  | > 10 mM |  | -3.9 |  |  |  |
| CC[C@H](C)[C@H](NC(=O)[C@H](Cc1c[nH]c2ccccc12)NC(=O)[C@H](CCC(=O)O)NC(=O)[C@H](Cc1ccc(O)cc1)NC(=O)[C@H](CC(C)C)NC(=O)[C@H](CC(=O)O)NC(=O)[C@H](C)NC(=O)[C@@H]1CCCN1C(=O)[C@@H](NC(=O)[C@@H](NC(=O)[C@@H](NC(=O)[C@H](CCSC)NC(=O)[C@@H](NC(C)=O)C(C)C)C(C)C)[C@@H](C)O)[C@@H](C)CC)C(=O)N[C@@H](CCC(=O)O)C(=O)N[C@@H](CCC(=O)O)C(=O)N[C@H](C(=O)N1CCC[C@H]1C(=O)NCC(=O)N[C@@H](CC(=O)O)C(=O)NCC(N)=O)C(C)C [SEQ ID NO: 40] (Ac-VMVTIPADLYEWIEEVPGDG-NH2) | < 200 nM | 4.21 |  |  | > 10 mM |  | -3.5 | -4.93 |  |  |
| CC(=O)N[C@@H](CC(=O)O)C(=O)N[C@@H](CC(C)C)C(=O)N[C@@H](CO)C(=O)N[C@@H](C)C(=O)N[C@H](C(=O)N[C@H]1CSSC[C@@H](C(=O)N[C@@H](Cc2c[nH]cn2)C(N)=O)NC(=O)[C@H](CCC(=O)O)NC(=O)[C@@H]2CCCN2C(=O)[C@H](CC(=O)O)NC(=O)[C@H](Cc2c[nH]c3ccccc23)NC(=O)[C@@H]2CCCN2C(=O)[C@H](Cc2ccccc2)NC(=O)[C@H](C)NC(=O)[C@H](Cc2c[nH]c3ccccc23)NC1=O)C(C)C [SEQ ID NO: 41] | < 1000 nM | 3.54 |  |  | > 10 mM |  | -1.94 | 1.24 |  |  |

Now from value to compound, other results behind:

| IC50 [2] | IP (isoelectric point) [3] | logP ([3]; logP) | logD ([3]; pH 7.4, Log D (7.4)) | solubility [4] | Papp [5] | logD [3, 6] | logP [3, 7] | Compound | Permeability (Papp) [1] | permeability compared to high permeability standard Rhodamine B (in words) [1] |
| --- | --- | --- | --- | --- | --- | --- | --- | --- | --- | --- |
| < 400 nM | 4.25 | 1.05 | -2.92 | > 10 mM | 28 ×10⁻⁶ cm/s |  |  | CC[C@H](C)[C@H](NC(C)=O)C(=O)N[C@@H](Cc1c[nH]cn1)C(=O)N[C@H](C(=O)N[C@H](C(=O)N[C@H](C(=O)N1CCC[C@H]1C(=O)N[C@@H](C)C(=O)N[C@@H](CC(=O)O)C(=O)N[C@@H](CC(C)C)C(=O)N[C@@H](Cc1c[nH]c2ccccc12)C(=O)N[C@@H](CC(=O)O)C(=O)N[C@@H](Cc1c[nH]c2ccccc12)C(=O)N[C@H](C(=O)N[C@@H](CCC(=O)O)C(=O)N[C@@H](CCCCN)C(N)=O)[C@@H](C)CC)[C@@H](C)CC)[C@@H](C)O)C(C)C [SEQ ID NO: 11] (Ac-IHVTIPADLWDWIEK-NH2) |  |  |
| < 400 nM | 8.99 | -5.4 | -2.8 | > 10 mM | 28.9 ×10⁻⁶ cm/s |  |  | CC[C@H](C)[C@H](NC(C)=O)C(=O)N[C@@H](Cc1c[nH]cn1)C(=O)N[C@H](C(=O)N[C@H](C(=O)N[C@H](C(=O)N1CCC[C@H]1C(=O)N[C@@H](C)C(=O)N[C@@H](CC(=O)O)C(=O)N[C@@H](CC(C)C)C(=O)N[C@@H](Cc1c[nH]c2ccccc12)C(=O)N[C@@H](CC(=O)O)C(=O)N[C@@H](Cc1c[nH]c2ccccc12)C(=O)N[C@H](C(=O)N[C@@H](CCCNC(=N)N)C(=O)N[C@@H](CCCNC(=N)N)C(N)=O)C(C)C)[C@@H](C)CC)[C@@H](C)O)C(C)C [SEQ ID NO: 14] (Ac-IHVTIPADLWDWVRR-NH2) |  |  |
| < 200 nM | 4.2 |  |  | > 10 mM |  | -2.86 | -5.36 | CC[C@H](C)[C@H](NC(=O)[C@H](Cc1c[nH]c2ccccc12)NC(=O)[C@H](CCC(=O)O)NC(=O)[C@H](Cc1ccc(O)cc1)NC(=O)[C@H](CC(C)C)NC(=O)[C@H](CC(=O)O)NC(=O)[C@H](C)NC(=O)[C@@H]1CCCN1C(=O)[C@@H](NC(=O)[C@@H](NC(=O)[C@@H](NC(=O)[C@H](CCSC)NC(=O)[C@@H](NC(=O)CNC(=O)[C@H](CC(=O)O)NC(=O)CNC(=O)[C@@H]1CCCN1C(=O)[C@@H](NC(C)=O)C(C)C)C(C)C)C(C)C)[C@@H](C)O)[C@@H](C)CC)C(=O)N[C@@H](CCC(=O)O)C(=O)N[C@@H](CCC(=O)O)C(N)=O [SEQ ID NO: 39] (Ac-VPGDGVMVTIPADLYEWIEE-NH2) |  |  |
| < 500 nM | 8.99 |  |  | < 0.05 mM | 83.7 ×10⁻⁶ cm/s | -0.93 | -0.38 | CC[C@H](C)[C@H](NC(=O)[C@@H](NC(=O)[C@@H](NC(=O)[C@H](Cc1c[nH]cn1)NC(=O)[C@@H](NC(C)=O)C(C)C)C(C)C)[C@@H](C)O)C(=O)N1CCC[C@H]1C(=O)N[C@@H](C)C(=O)N[C@@H](CCC(=O)O)C(=O)N[C@@H](CC(C)C)C(=O)N[C@@H](Cc1c[nH]c2ccccc12)C(=O)N[C@@H](CCC(=O)O)C(=O)N[C@@H](Cc1c[nH]c2ccccc12)C(=O)N[C@H](C(=O)N[C@@H](CCCNC(=N)N)C(=O)N[C@@H](CCCNC(=N)N)C(N)=O)C(C)C [SEQ ID NO: 111] (Ac-VHVTIPAELWEWVRR-NH2) |  | higher permeability compared to Rhodamine B |
| < 500 nM | 8.99 |  |  | < 0.05 mM |  |  | -4.76 | CC[C@H](C)[C@H](NC(=O)[C@@H](NC(=O)[C@H](Cc1ccccc1)NC(=O)[C@H](Cc1c[nH]cn1)NC(=O)[C@@H](NC(C)=O)C(C)C)[C@@H](C)O)C(=O)N1CCC[C@H]1C(=O)N[C@@H](C)C(=O)N[C@@H](CC(=O)O)C(=O)N[C@@H](CC(C)C)C(=O)N[C@@H](Cc1c[nH]c2ccccc12)C(=O)N[C@@H](CCC(=O)O)C(=O)N[C@@H](Cc1c[nH]c2ccccc12)C(=O)N[C@H](C(=O)N[C@@H](CCCNC(=N)N)C(=O)N[C@@H](CCCNC(=N)N)C(N)=O)C(C)C [SEQ ID NO: 112] (Ac-VHFTIPADLWEWVRR-NH2) |  |  |
| < 500 nM | 8.99 |  |  | < 0.05 mM |  | -3.59 | -0.21 | CC(=O)N[C@H](C(=O)N[C@@H](Cc1c[nH]cn1)C(=O)N[C@H](C(=O)N[C@H](C(=O)N[C@@H](Cc1ccccc1)C(=O)N1CCC[C@H]1C(=O)N[C@@H](C)C(=O)N[C@@H](CC(=O)O)C(=O)N[C@@H](CC(C)C)C(=O)N[C@@H](Cc1c[nH]c2ccccc12)C(=O)N[C@@H](CCC(=O)O)C(=O)N[C@@H](Cc1c[nH]c2ccccc12)C(=O)N[C@H](C(=O)N[C@@H](CCCNC(=N)N)C(=O)N[C@@H](CCCNC(=N)N)C(N)=O)C(C)C)[C@@H](C)O)C(C)C)C(C)C [SEQ ID NO: 114] (Ac-VHVTFPADLWEWVRR-NH2) |  |  |
| < 500 nM | 8.99 |  |  | < 0.05 mM | 47.1 ×10⁻⁶ cm/s | -1.47 | -0.51 | CC[C@H](C)[C@H](NC(=O)[C@@H](NC(=O)[C@@H](NC(=O)[C@H](Cc1c[nH]cn1)NC(=O)[C@@H](NC(C)=O)C(C)C)C(C)C)[C@@H](C)O)C(=O)N1CCC[C@H]1C(=O)N[C@@H](C)C(=O)N[C@@H](CC(=O)O)C(=O)N[C@@H](CC(C)C)C(=O)N[C@@H](Cc1c[nH]c2ccccc12)C(=O)N[C@@H](CCC(=O)O)C(=O)N[C@@H](Cc1c[nH]c2ccccc12)C(=O)N[C@@H](Cc1ccccc1)C(=O)N[C@@H](CCCNC(=N)N)C(=O)N[C@@H](CCCNC(=N)N)C(N)=O [SEQ ID NO: 121] (Ac-VHVTIPADLWEWFRR-NH2) |  |  |
